From PMC5966835 (Antiviral research, 2018)
Like-named read-outs stand apart in the source and are kept apart here.

How the values were obtained:
CHIKV nsP1 [1] = molecular target: T1, CHIKV nsP1 (Chikungunya virus, UniProt Q8JUX6); assay: Fluorescence polarization GTP-competition assay; assay type: binding; details: for more active against CHIKV nsP1 than Dengue NS5 (selectivity): Ki CHIKV nsP1 vs DENV NS5
T1 sequence (Q8JUX6 1-535 limits assumed): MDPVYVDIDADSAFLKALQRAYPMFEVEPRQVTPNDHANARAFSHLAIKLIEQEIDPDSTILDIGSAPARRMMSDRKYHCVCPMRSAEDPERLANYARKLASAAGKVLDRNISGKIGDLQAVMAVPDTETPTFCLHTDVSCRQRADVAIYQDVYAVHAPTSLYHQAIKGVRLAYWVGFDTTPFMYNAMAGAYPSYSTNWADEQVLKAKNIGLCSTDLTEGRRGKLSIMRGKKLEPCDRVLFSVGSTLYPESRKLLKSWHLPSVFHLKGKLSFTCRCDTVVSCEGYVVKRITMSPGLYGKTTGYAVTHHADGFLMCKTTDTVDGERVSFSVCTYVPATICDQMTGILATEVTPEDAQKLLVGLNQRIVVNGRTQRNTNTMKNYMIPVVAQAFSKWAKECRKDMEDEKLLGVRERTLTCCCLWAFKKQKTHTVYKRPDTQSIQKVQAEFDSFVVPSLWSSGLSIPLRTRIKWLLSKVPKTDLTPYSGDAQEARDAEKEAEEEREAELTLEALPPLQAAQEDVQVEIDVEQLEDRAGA

DENV NS5 = DENV NS5 (Dengue virus type 2, UniProt P29990); assay: GTP-binding inhibition of flavivirus NS5 capping enzyme
CHIKV nsP1 [2] = molecular target: T1, CHIKV nsP1; assay: Guanylation inhibition; assay type: biochemical; details: 200-3.1 µM, 1 hour at 37°C, n=3
Sindbis virus = assay: Live virus testing, Sindbis virus in BHK cells, plaque assay; assay type: cell-based, Sindbis virus (TE/3'2J); details: for Sindbis virus replication in vitro: BHK cells, MOI 0.1, 48 hours
CHIKV (strain OPY1) = assay: Live virus testing, CHIKV in BHK cells, plaque assay; assay type: cell-based, Chikungunya virus; details: for CHIKV replication in BHK cells: MOI 0.1, 48 hours; for EC50: Chikungunya virus, BHK, read-out: BHK EC50
[3] = tested on: human adenosine-triphosphategated P2X7 receptor; details: ref Fischer et al., 2014; cited from earlier work
[4] = cited from earlier work
CHIKV = assay: Live virus testing, CHIKV in Huh 7 cells, plaque assay; assay type: cell-based; details: Chikungunya virus, read-out: Huh 7 EC50
Cytotoxicity assay [5] = assay: Cytotoxicity assay
Cytotoxicity assay [6] = details: human

Chain of DENV NS5 (P29990 2492-2758 limits assumed): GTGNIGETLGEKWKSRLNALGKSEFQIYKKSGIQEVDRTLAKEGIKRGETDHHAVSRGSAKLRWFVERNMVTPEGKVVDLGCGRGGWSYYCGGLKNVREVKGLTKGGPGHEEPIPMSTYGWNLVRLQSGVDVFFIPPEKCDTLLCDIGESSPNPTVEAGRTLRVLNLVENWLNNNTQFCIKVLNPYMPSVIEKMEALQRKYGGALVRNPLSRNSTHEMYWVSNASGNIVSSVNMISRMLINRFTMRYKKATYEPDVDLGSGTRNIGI

CC(C)=CCCC1(C)C=Cc2c(O)c3c(c(CC=C(C)C)c2O1)OC12C(=CCCC1C(C)(C)O[C@@]2(C/C=C(\C)C(=O)O)C(=O)O)C3=O (some centres unmarked) [garcinolic acid]
Ki (CHIKV nsP1 [1]): 14.5 ± 4.9 µM
Ki (DENV NS5): 6.9 ± 0.4 µM
inhibition of CHIKV nsP1 guanylation activity (CHIKV nsP1 [2]): inhibited CHIKV nsP1 guanlylation activity in a dose dependent manner
Sindbis virus replication in vitro (Sindbis virus): did not markedly decrease Sindbis virus replication in vitro
CHIKV replication in BHK cells (CHIKV (strain OPY1)): Neither pyrantel pamoate nor garcinolic acid were able to reduce CHIKV replication in BHK cells
Ca(2+) uptake of P2X7 receptor [3]: increase Ca(2+) uptake of the human adenosine-triphosphategated P2X7 receptor

CCc1oc2ccccc2c1C(=O)c1cc(Br)c(O)c(Br)c1 [benzbromarone, Benzbromarone, reference compound]
Ki (CHIKV nsP1 [1]): 13 ± 0.9 µM
Ki (DENV NS5): 9 ± 0.7 µM
inhibition of CHIKV nsP1 guanylation activity (CHIKV nsP1 [2]): only showed inhibitory activity at high µM concentrations

CN1CCCN=C1/C=C/c1cccs1 [pyrantel pamoate, reference compound]
Ki (CHIKV nsP1 [1]): 5 ± 0.3 µM
more active against CHIKV nsP1 than Dengue NS5 (selectivity) (CHIKV nsP1 [1]): ~5 X
Ki (DENV NS5): 38 ± 1.5 µM
inhibition of CHIKV nsP1 guanylation activity (CHIKV nsP1 [2]): inhibited CHIKV nsP1 guanlylation activity in a dose dependent manner
Sindbis virus replication in vitro (Sindbis virus): did not markedly decrease Sindbis virus replication in vitro
CHIKV replication in BHK cells (CHIKV (strain OPY1)): Neither pyrantel pamoate nor garcinolic acid were able to reduce CHIKV replication in BHK cells
absorption in the human intestine [4]: poorly absorbed in the human intestine

CCCCCc1c2c(cc(O)c1C(=O)O)OC(=O)c1c(cc(OC)cc1C(=O)CCCC)O2 [lobaric acid]
Ki (CHIKV nsP1 [1]): 7 ± 0.6 µM
more active against CHIKV nsP1 than Dengue NS5 (selectivity) (CHIKV nsP1 [1]): ~5 X
Ki (DENV NS5): 43.8 ± 7 µM
inhibition of CHIKV nsP1 guanylation activity (CHIKV nsP1 [2]): inhibited CHIKV nsP1 guanlylation activity in a dose dependent manner
EC50 (Sindbis virus; Sindbis virus, BHK, 48 h, read-out: EC50 Sindbis virus growth): 5.9 µM
average selectivity index (CHIKV (strain OPY1); BHK and Huh 7 cells, 24 and 48 hours): ~7
CHIKV replication in BHK cells (CHIKV (strain OPY1)): inhibited viral replication efficiently after 48 hours
EC50 (CHIKV (strain OPY1); 24 h): 9.9 ± 2.6 µM
EC50 (CHIKV (strain OPY1); 48 h): 8.9 ± 1.3 µM
EC50 (CHIKV; Huh-7, 24 h): 16.3 ± 1.2 µM
EC50 (CHIKV; Huh-7, 48 h): 5.3 ± 0.4 µM
CC50 at 24 h (Cytotoxicity assay [5]; hamster): 76.3 ± 2.1 µM
CC50 at 48 h (Cytotoxicity assay [5]; hamster): 53.8 ± 8.1 µM
CC50 (Cytotoxicity assay [5]; hamster and human): 50 to 76 µM
CC50 at 24 h (Cytotoxicity assay [6]): 60.5 ± 3.8 µM
CC50 at 48 h (Cytotoxicity assay [6]): 50 ± 1.3 µM
